Measured values published in patent publication US4260745A, “3-Halo cephalosporins” (Eli Lilly and Company, priority 1979, dated 1981).
Converted amounts (≈) assume the structure as drawn. Read-outs that look alike come from different tables or passages of the source.

Assays:
[1] = system: Penicillin Resistant Staphylococcus; assay: Gradient Plate technique, MIC; type: cell-based; conditions: read-out: Minimum Inhibitory Concentration
Description: The following Table II lists the minimum inhibitory concentration (MIC) for 7-[2-(2-thienyl)acetamido]-3-chloro-3-cephem-4-carboxylic acid against penicillin resistant Staphylococcus both in the presence of and absence of serum. The MIC values were obtained by the Gradient Plate technique carried out essentially as described by Bryson and Szybalski, Science, 116, 45 (1952). […]

[2] = system: Salmonella heidelberg; assay: Gradient Plate technique, MIC; type: cell-based; conditions: Salmonella enterica, read-out: Minimum Inhibitory Concentration
Description: (§1) The following Table II lists the minimum inhibitory concentration (MIC) for 7-[2-(2-thienyl)acetamido]-3-chloro-3-cephem-4-carboxylic acid against penicillin resistant Staphylococcus both in the presence of and absence of serum. The MIC values were obtained by the Gradient Plate technique carried out essentially as described by Bryson and Szybalski, Science, 116, 45 (1952).
(§2) In Table III, below, the MIC values for the test compound of Tables I and II against representative gram-negative organisms is presented. The data were obtained by the Gradient Plate technique.
(§3) The minimum inhibitory concentrations for 7-[2-(2-thienyl)acetamido]-3-bromo-3-cephem-4-carboxylic acid against representative gram-negative bacteria is presented in Table VI. The data were obtained by the Gradient Plate Method.
(§4) Tables VII and VIII list the minimum inhibitory concentrations of the test compound effective against representative penicillin resistant Staphylococcus strains, while […] the MIC values obtained against representative gram-negative microorganisms. The data were obtained by the Gradient Plate method.

[3] = system: Shigella sp.; assay: Gradient Plate technique, MIC; type: cell-based; conditions: read-out: Minimum Inhibitory Concentration
Description: as §1, §2, §3, §4

[4] = system: Serratia marcescens; assay: Gradient Plate technique, MIC; type: cell-based; conditions: read-out: Minimum Inhibitory Concentration
Description: as §1, §2, §3, §4

[5] = system: Pseudomonas aeruginosa; assay: Gradient Plate technique, MIC; type: cell-based; conditions: read-out: Minimum Inhibitory Concentration
Description: as §1, §2, §3, §4

[6] = system: Aerobacter aerogenes; assay: Gradient Plate technique, MIC; type: cell-based; conditions: Klebsiella aerogenes, read-out: Minimum Inhibitory Concentration
Description: as §1, §2, §3, §4

[7] = system: Escherichia coli; assay: Gradient Plate technique, MIC; type: cell-based; conditions: read-out: Minimum Inhibitory Concentration
Description: as §1, §2, §3, §4

[8] = system: Klebsiella pneumoniae; assay: Gradient Plate technique, MIC; type: cell-based; conditions: read-out: Minimum Inhibitory Concentration
Description: as §1, §2, §3, §4

[9] = system: Trichophyton mentagrophytes; assay: standard disc-plate method, zone of inhibition; type: cell-based; set-up: key: --: A dash indicates no observed zone of inhibition; hazy zone; conditions: Table IV
Description: (§5) In Table IV below, the in vitro antimicrobial activity of 7-[2-(2-thienyl)acetamido]-3-bromo-3-cephem-4-carboxylic acid is presented for several illustrative microorganisms. The data presented were obtained in the standard disc-plate method with the numerical values recording the diameter in millimeters of the zones of inhibition observed with the named microorganisms.

[10] = system: Neurospora sp.; assay: standard disc-plate method, zone of inhibition; type: cell-based; set-up: key: --: A dash indicates no observed zone of inhibition; hazy zone; conditions: Table IV
Description: as §5

[11] = system: Candida albicans; assay: standard disc-plate method, zone of inhibition; type: cell-based; set-up: key: --: A dash indicates no observed zone of inhibition; hazy zone; conditions: Table IV
Description: as §5

[12] = system: Proteus vulgaris; assay: standard disc-plate method, zone of inhibition; type: cell-based; conditions: Table IV, read-out: Zone of Inhibition (diameter in mm)
Description: (§6) The in vitro antimicrobial activity of the 3-halo cephalosporins is illustrated by the data in the following tables. Table I contains the antimicrobial activity for 7-[2-(2-thienyl)acetamido]-3-chloro-3-cephem-4-carboxylic acid obtained in the standard Disc-plate method. The numerical values are the diameter in millimeters of the zones of inhibition observed with the named organisms.
as §5

[13] = system: Mycobacterium avium; assay: standard disc-plate method, zone of inhibition; type: cell-based; conditions: Table IV, read-out: Zone of Inhibition (diameter in mm)
Description: as §6, §5

[14] = system: Sarcina lutea; assay: standard disc-plate method, zone of inhibition; type: cell-based; conditions: Micrococcus luteus, Table IV, read-out: Zone of Inhibition (diameter in mm)
Description: as §6, §5

[15] = system: Escherichia coli; assay: standard disc-plate method, zone of inhibition; type: cell-based; conditions: Table IV, read-out: Zone of Inhibition (diameter in mm); for zone of inhibition at 100 µg/mL: 0.1 mg./ml.; for zone of inhibition at 1000 µg/mL: 1.0 mg./ml.
Description: as §6, §5

[16] = system: Bacillus subtilis; assay: standard disc-plate method, zone of inhibition; type: cell-based; conditions: Table IV, read-out: Zone of Inhibition (diameter in mm); for zone of inhibition at 10 µg/mL: 0.01 mg./ml.; for zone of inhibition at 100 µg/mL: 0.1 mg./ml.; for zone of inhibition at 1000 µg/mL: 1.0 mg./ml.
Description: as §6, §5

[17] = system: Staphylococcus aureus; assay: standard disc-plate method, zone of inhibition; type: cell-based; conditions: Table IV, read-out: Zone of Inhibition (diameter in mm)
Description: as §6, §5

[18] = system: Klebsiella pneumoniae; assay: standard disc-plate method, zone of inhibition; type: cell-based; conditions: Table IV, read-out: Zone of Inhibition (diameter in mm)
Description: as §6, §5

[19] = system: Salmonella gallinarum; assay: standard disc-plate method, zone of inhibition; type: cell-based; set-up: key to Zone of Inhibition (diameter in mm): --: A dash indicates no observed zone of inhibition; hazy zone; conditions: Table IV
Description: as §6, §5

[20] = system: Pseudomonas solanacearcum; assay: standard disc-plate method, zone of inhibition; type: cell-based; set-up: key to Zone of Inhibition (diameter in mm): --: A dash indicates no observed zone of inhibition; hazy zone; conditions: Table IV
Description: as §6, §5

[21] = Electrometric titration; type: physicochemical; conditions: 66% aqueous dmf; only or first pKa; read-out: pKa
[22] = system: Escherichia coli; assay: standard disc-plate method, zone of inhibition; type: cell-based; set-up: key: --: A dash indicates no observed zone of inhibition; hazy zone; conditions: 0.01 mg./ml.; Table IV
Description: as §6, §5

In the case of `O=C(Cc1cccs1)NC1C(=O)N2C(C(=O)O)=C(Br)CS[C@H]12` (stereo partly drawn) [7-[2-(2-Thienyl)acetamido]-3-bromo-3-cephem-4-carboxylic acid], the MIC ([1]; Clinical Isolate V 32, No Serum) is reported as 0.6 µg/mL (≈ 1.49 µM), the MIC ([1]; Clinical Isolate V 41, No Serum) is reported as 0.5 µg/mL (≈ 1.24 µM) and the MIC ([1]; Clinical Isolate V 84, No Serum) is reported as 0.4 µg/mL (≈ 0.992 µM). For the same compound, the MIC ([1]; Clinical Isolate X 1.1, No Serum) was 0.3 µg/mL (≈ 0.744 µM), the MIC [2] was 1 µg/mL (≈ 2.48 µM) and the MIC [3] was 19.8 µg/mL (≈ 49.1 µM). For the same compound, the MIC [4] was over 200 µg/mL, the MIC [5] was over 200 µg/mL and the MIC [6] was 1 µg/mL (≈ 2.48 µM). For the same compound, the MIC [7] was 20.8 µg/mL (≈ 51.6 µM), the MIC [8] was 1 µg/mL (≈ 2.48 µM) and the “Zone of Inhibition (diameter in mm)” value ([9]; 0.01 mg./ml.) was “--”. For the same compound, the “Zone of Inhibition (diameter in mm)” value ([9]; 0.1 mg./ml.) was “--”, the “Zone of Inhibition (diameter in mm)” value ([9]; 1.0 mg./ml.) was “--” and the “Zone of Inhibition (diameter in mm)” value ([10]; 0.01 mg./ml.) was “--”. The “Zone of Inhibition (diameter in mm)” value ([10]; 0.1 mg./ml.) was “--”, the “Zone of Inhibition (diameter in mm)” value ([10]; 1.0 mg./ml.) was “--” and the “Zone of Inhibition (diameter in mm)” value ([11]; 0.01 mg./ml.) was “--”. The “Zone of Inhibition (diameter in mm)” value ([11]; 0.1 mg./ml.) was “--”, the “Zone of Inhibition (diameter in mm)” value ([11]; 1.0 mg./ml.) was “--” and the zone of inhibition at 10 µg/mL ([12]; 0.01 mg./ml., hazy zone (h)) was 11 mm. It also gave a zone of inhibition at 100 µg/mL ([12]; 0.1 mg./ml.) of 20 mm, a zone of inhibition at 1000 µg/mL ([12]; 1.0 mg./ml.) of 28 mm and a zone of inhibition at 10 µg/mL ([13]; 0.01 mg./ml., hazy zone (h)) of 33 mm. For the same compound, the zone of inhibition at 100 µg/mL ([13]; 0.1 mg./ml., hazy zone (h)) was 42 mm, the zone of inhibition at 1000 µg/mL ([13]; 1.0 mg./ml.) was 23 mm and the zone of inhibition at 10 µg/mL ([14]; 0.01 mg./ml.) was 17 mm. It also gave a zone of inhibition at 100 µg/mL ([14]; 0.1 mg./ml.) of 33 mm, a zone of inhibition at 1000 µg/mL ([14]; 1.0 mg./ml.) of 32 mm and a zone of inhibition at 10 µg/mL ([15]; 0.01 mg./ml., Synthetic medium, hazy zone (h)) of 11 mm. It also gave a zone of inhibition at 100 µg/mL ([15]; Synthetic medium) of 18 mm, a zone of inhibition at 100 µg/mL [15] of 14 mm and a zone of inhibition at 1000 µg/mL ([15]; Synthetic medium) of 27 mm. For the same compound, the zone of inhibition at 1000 µg/mL [15] was 23 mm, the zone of inhibition at 10 µg/mL ([16]; Synthetic medium) was 43 mm and the zone of inhibition at 10 µg/mL [16] was 23 mm. The zone of inhibition at 100 µg/mL ([16]; Synthetic medium) was 50 mm, the zone of inhibition at 100 µg/mL [16] was 38 mm and the zone of inhibition at 1000 µg/mL ([16]; Synthetic medium) was 60 mm. The zone of inhibition at 1000 µg/mL [16] was 37 mm, the zone of inhibition at 10 µg/mL ([17]; 0.01 mg./ml.) was 22 mm and the zone of inhibition at 100 µg/mL ([17]; 0.1 mg./ml.) was 25 mm. The zone of inhibition at 1000 µg/mL ([17]; 1.0 mg./ml.) was 27 mm, the zone of inhibition at 10 µg/mL ([18]; 0.01 mg./ml.) was 11 mm and the zone of inhibition at 100 µg/mL ([18]; 0.1 mg./ml.) was 19 mm. For the same compound, the zone of inhibition at 1000 µg/mL ([18]; 1.0 mg./ml.) was 28 mm, the “Zone of Inhibition (diameter in mm)” value ([19]; 0.01 mg./ml.) was “--” and the zone of inhibition at 100 µg/mL ([19]; Salmonella enterica, GALLINARUM, 0.1 mg./ml., read-out: Zone of Inhibition (diameter in mm)) was 15 mm. For the same compound, the zone of inhibition at 1000 µg/mL ([19]; Salmonella enterica, GALLINARUM, 1.0 mg./ml., read-out: Zone of Inhibition (diameter in mm)) was 30 mm, the “Zone of Inhibition (diameter in mm)” value ([20]; 0.01 mg./ml.) was “--” and the zone of inhibition at 100 µg/mL ([20]; Pseudomonas, 0.1 mg./ml., hazy zone (h), read-out: Zone of Inhibition (diameter in mm)) was 20 mm. The zone of inhibition at 1000 µg/mL ([20]; Pseudomonas, 1.0 mg./ml., read-out: Zone of Inhibition (diameter in mm)) was 31 mm, the pKa [21] was 4.4 and the “Zone of Inhibition (diameter in mm)” value [22] was “--”.
